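Each compound was tested at five concentrations against cells in 96-well plates for 48 hours. GI50 marks 50% less growth. Definition used: TGI = concentration required for complete inhibition of growth.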
Assays:
Assay in all cases: growth of human tumour cells (NCI), 48 h; in the data active means GI50 below about 0.43 µM; inactive means the rest
HCT-15 colon = system: HCT-15 colon
EKVX NSCLC = system: EKVX NSCLC
OVCAR-3 ovarian = system: OVCAR-3 ovarian
SF-295 CNS = system: SF-295 CNS
HOP-92 NSCLC = system: HOP-92 NSCLC
M14 melanoma = system: M14 melanoma
RPMI-8226 leukemia = system: RPMI-8226 leukemia
OVCAR-4 ovarian = system: OVCAR-4 ovarian
SK-MEL-28 melanoma = system: SK-MEL-28 melanoma
CAKI-1 renal = system: CAKI-1 renal
COLO 205 colon = system: COLO 205 colon
HS 578T breast = system: HS 578T breast
RXF 393 renal = system: RXF 393 renal
MDA-MB-231 breast = system: MDA-MB-231 breast
ACHN renal = system: ACHN renal
OVCAR-8 ovarian = system: OVCAR-8 ovarian
SK-MEL-2 melanoma = system: SK-MEL-2 melanoma
SN12C renal = system: SN12C renal
OVCAR-5 ovarian = system: OVCAR-5 ovarian
CCRF-CEM leukemia = system: CCRF-CEM leukemia
IGROV1 ovarian = system: IGROV1 ovarian
NCI-H460 lung = system: NCI-H460 lung
UACC-257 melanoma = system: UACC-257 melanoma
A549 NSCLC = system: A549 NSCLC
MDA-MB-435 = system: MDA-MB-435
SF-268 CNS = system: SF-268 CNS
MOLT-4 leukemia = system: MOLT-4 leukemia
SNB-75 CNS = system: SNB-75 CNS
SK-OV-3 ovarian = system: SK-OV-3 ovarian
MALME-3M melanoma = system: MALME-3M melanoma
SNB-19 CNS = system: SNB-19 CNS
786-0 renal = system: 786-0 renal
PC-3 prostate = system: PC-3 prostate
LOX IMVI melanoma = system: LOX IMVI melanoma
U251 CNS = system: U251 CNS
NCI-H522 lung = system: NCI-H522 lung
NCI-H226 lung = system: NCI-H226 lung
BT-549 breast = system: BT-549 breast
MCF7 breast = system: MCF7 breast
A498 renal = system: A498 renal
NCI/ADR-RES ovarian = system: NCI/ADR-RES ovarian
TK-10 renal = system: TK-10 renal
HT29 colon = system: HT29 colon
SK-MEL-5 melanoma = system: SK-MEL-5 melanoma
UACC-62 melanoma = system: UACC-62 melanoma
HCT-116 colon = system: HCT-116 colon
NCI-H23 lung = system: NCI-H23 lung
SW-620 colon = system: SW-620 colon
UO-31 renal = system: UO-31 renal
KM12 colon = system: KM12 colon
HOP-62 NSCLC = system: HOP-62 NSCLC
SF-539 CNS = system: SF-539 CNS
T-47D breast = system: T-47D breast
DU-145 prostate = system: DU-145 prostate
HCC-2998 colon = system: HCC-2998 colon
SR leukemia = system: SR leukemia
K-562 leukemia = system: K-562 leukemia

O=C(O)c1cccc(/C=C/c2ccccc2)c1
> 100000 nM: TGI (HCT-15 colon) | TGI (EKVX NSCLC) | TGI (OVCAR-3 ovarian) | TGI (SF-295 CNS) | TGI (HOP-92 NSCLC) | TGI (M14 melanoma) | TGI (RPMI-8226 leukemia) | TGI (OVCAR-4 ovarian) | TGI (SK-MEL-28 melanoma) | TGI (CAKI-1 renal) | TGI (COLO 205 colon) | TGI (HS 578T breast) | TGI (RXF 393 renal) | TGI (MDA-MB-231 breast) | TGI (ACHN renal) | TGI (OVCAR-8 ovarian) | TGI (SK-MEL-2 melanoma) | TGI (SN12C renal) | TGI (OVCAR-5 ovarian) | TGI (CCRF-CEM leukemia) | TGI (IGROV1 ovarian) | TGI (NCI-H460 lung) | TGI (UACC-257 melanoma) | TGI (A549 NSCLC) | TGI (MDA-MB-435) | TGI (SF-268 CNS) | TGI (MOLT-4 leukemia) | TGI (SNB-75 CNS) | TGI (SK-OV-3 ovarian) | TGI (MALME-3M melanoma) | TGI (SNB-19 CNS) | TGI (786-0 renal) | TGI (PC-3 prostate) | TGI (LOX IMVI melanoma) | TGI (U251 CNS) | TGI (NCI-H522 lung) | TGI (NCI-H226 lung) | TGI (BT-549 breast) | TGI (MCF7 breast) | TGI (A498 renal) | TGI (NCI/ADR-RES ovarian) | TGI (TK-10 renal) | TGI (HT29 colon) | TGI (SK-MEL-5 melanoma) | TGI (UACC-62 melanoma) | TGI (HCT-116 colon) | TGI (NCI-H23 lung) | TGI (SW-620 colon) | TGI (UO-31 renal) | TGI (KM12 colon) | TGI (HOP-62 NSCLC) | TGI (SF-539 CNS) | TGI (T-47D breast) | TGI (DU-145 prostate)

CCOC(=O)c1c2c(n(Cc3ccccc3)c1C)-c1nc(Cc3ccccc3)[nH]c1C(=O)C2=O
3830 nM: TGI (KM12 colon)
2470 nM: TGI (OVCAR-3 ovarian)
7150 nM: TGI (A549 NSCLC)
2640 nM: TGI (UO-31 renal) | TGI (T-47D breast)
3150 nM: TGI (U251 CNS)
3270 nM: TGI (EKVX NSCLC)
3260 nM: TGI (MALME-3M melanoma)
5340 nM: TGI (HS 578T breast)
3300 nM: TGI (SF-539 CNS)
5190 nM: TGI (SK-OV-3 ovarian)
3200 nM: TGI (PC-3 prostate)
4930 nM: TGI (RPMI-8226 leukemia)
3090 nM: TGI (SNB-19 CNS)
3590 nM: TGI (NCI-H23 lung)
4090 nM: TGI (HCC-2998 colon)
2760 nM: TGI (OVCAR-4 ovarian)
4050 nM: TGI (K-562 leukemia)
3170 nM: TGI (LOX IMVI melanoma) | TGI (A498 renal)
2450 nM: TGI (HOP-92 NSCLC)
4020 nM: TGI (SR leukemia)
3620 nM: TGI (OVCAR-5 ovarian)
3210 nM: TGI (SN12C renal)
2970 nM: TGI (CCRF-CEM leukemia)
4220 nM: TGI (NCI-H460 lung)
3450 nM: TGI (HOP-62 NSCLC)
2340 nM: TGI (RXF 393 renal)
2810 nM: TGI (SNB-75 CNS)
3550 nM: TGI (UACC-62 melanoma)
4590 nM: TGI (SF-268 CNS)
3080 nM: TGI (TK-10 renal)
4140 nM: TGI (SF-295 CNS)
2920 nM: TGI (DU-145 prostate)
4990 nM: TGI (OVCAR-8 ovarian)
3490 nM: TGI (M14 melanoma)
2940 nM: TGI (HCT-15 colon)
2180 nM: TGI (CAKI-1 renal)
4390 nM: TGI (NCI-H226 lung)
2670 nM: TGI (MDA-MB-231 breast)
3330 nM: TGI (COLO 205 colon)
5280 nM: TGI (NCI/ADR-RES ovarian)
2680 nM: TGI (IGROV1 ovarian)
2900 nM: TGI (HCT-116 colon)
3290 nM: TGI (786-0 renal)
4130 nM: TGI (SK-MEL-2 melanoma)
3280 nM: TGI (SW-620 colon)
inactive: GI50 (HCT-15 colon) 1590 nM | GI50 (EKVX NSCLC) 1840 nM | GI50 (OVCAR-3 ovarian) 1130 nM | GI50 (SF-295 CNS) 1920 nM | GI50 (HOP-92 NSCLC) 1170 nM | GI50 (M14 melanoma) 1750 nM | GI50 (RPMI-8226 leukemia) 1780 nM | GI50 (OVCAR-4 ovarian) 1030 nM | GI50 (SK-MEL-28 melanoma) 2000 nM | GI50 (CAKI-1 renal) 673 nM | GI50 (COLO 205 colon) 1830 nM | GI50 (HS 578T breast) 2260 nM | GI50 (RXF 393 renal) 870 nM | GI50 (HCC-2998 colon) 2600 nM | GI50 (MDA-MB-231 breast) 1370 nM | GI50 (ACHN renal) 1640 nM | GI50 (OVCAR-8 ovarian) 2030 nM | GI50 (SK-MEL-2 melanoma) 1690 nM | GI50 (SN12C renal) 1580 nM | GI50 (OVCAR-5 ovarian) 1980 nM | GI50 (CCRF-CEM leukemia) 962 nM | GI50 (IGROV1 ovarian) 1240 nM | GI50 (NCI-H460 lung) 1960 nM | GI50 (UACC-257 melanoma) 2820 nM | GI50 (A549 NSCLC) 2500 nM | GI50 (SF-268 CNS) 1910 nM | GI50 (MOLT-4 leukemia) 2130 nM | GI50 (SNB-75 CNS) 1490 nM | GI50 (SK-OV-3 ovarian) 2310 nM | GI50 (MALME-3M melanoma) 1610 nM | GI50 (SNB-19 CNS) 1720 nM | GI50 (786-0 renal) 1770 nM | GI50 (PC-3 prostate) 1450 nM | GI50 (LOX IMVI melanoma) 1780 nM | GI50 (U251 CNS) 1770 nM | GI50 (NCI-H226 lung) 1670 nM | GI50 (BT-549 breast) 1430 nM | GI50 (MCF7 breast) 1660 nM | GI50 (A498 renal) 1740 nM | GI50 (NCI/ADR-RES ovarian) 2510 nM | GI50 (TK-10 renal) 1480 nM | GI50 (HT29 colon) 1640 nM | GI50 (SK-MEL-5 melanoma) 1690 nM | GI50 (UACC-62 melanoma) 1740 nM | GI50 (HCT-116 colon) 1490 nM | GI50 (NCI-H23 lung) 1820 nM | GI50 (SW-620 colon) 1840 nM | GI50 (SR leukemia) 1650 nM | GI50 (UO-31 renal) 1320 nM | GI50 (K-562 leukemia) 1850 nM | GI50 (KM12 colon) 1830 nM | GI50 (HOP-62 NSCLC) 1750 nM | GI50 (SF-539 CNS) 1770 nM | GI50 (T-47D breast) 496 nM | GI50 (DU-145 prostate) 1580 nM
4340 nM: TGI (MCF7 breast)
3420 nM: TGI (SK-MEL-28 melanoma)
5410 nM: TGI (MOLT-4 leukemia)
2990 nM: TGI (BT-549 breast)
3000 nM: TGI (ACHN renal) | TGI (HT29 colon)
3060 nM: TGI (SK-MEL-5 melanoma)
8710 nM: TGI (UACC-257 melanoma)

From PubChem BioAssay (NCI)
